Test results from patent US12433874B2 (PRESCIENCE BIOTECHNOLOGY INC., priority 2022, dated 2025).

Experiments:
[1] = test system: CT26 cells (murine colorectal carcinoma cell); experiment: CT26 mouse colon cancer model; assay type: in vivo; details: 5-FU 25 mg/kg Q3d*4, RAP-E 25 mg/kg Q3d*4
Description: CT26 model on Balb/c mice was used as another animal model, classified as three groups: a control group (no drug), a comparative group (administration of 5-FU, dose: 25 mg/kg, Q3d*4) and the inventive group (administration of RAP-E formulation, dose: 25 mg/kg, Q3d*4). 6 week old Balb/c mice (BioLasco, Ilan, Taiwan) were inoculated subcutaneously with 1*10^5 CT26 cells (murine colorectal carcinoma cell). Following tumor inoculation, measuring the tumor size twice a week, and starting treatment when the tumor grows to 80-100 mm^3.

[2] = BCS Class II drug; cited from earlier work
[3] = test system: SKOV3 cells (human ovarian cancer cell); assay type: in vivo; details: docetaxel 4 mg/kg Q3d*4; RAP-E 50 mg/kg Q3d*4
Source text: Akt and mTOR phosphorylation are frequently detected in ovarian cancer, and SKOV3, an ovarian cancer cell line, is resistant to cis-platinum and doxorubicin.

[4] = tablet form; cited from earlier work

O=c1[nH]cc(F)c(=O)[nH]1 [5-FU]
Mean inhibition rate (tumor volume) [1]: 11%
toxicity (body weight change) [1]: significant weight loss
Day 16 tumor inhibition rate ([1]; day 16): 26%

CO[C@H]1C[C@@H]2CC[C@@H](C)[C@@](O)(O2)C(=O)C(=O)N2CCCC[C@H]2C(=O)O[C@H]([C@H](C)C[C@@H]2CC[C@@H](O)[C@H](OC)C2)CC(=O)[C@H](C)/C=C(\C)[C@@H](O)[C@@H](OC)C(=O)[C@H](C)C[C@H](C)/C=C/C=C/C=C/1C [Rapamycin]
permeability [2]: high permeability

CC(=O)O[C@@]12CO[C@@H]1C[C@H](O)[C@@]1(C)C(=O)[C@H](O)C3=C(C)[C@@H](OC(=O)[C@H](O)[C@@H](NC(=O)OC(C)(C)C)c4ccccc4)C[C@@](O)([C@@H](OC(=O)c4ccccc4)[C@H]21)C3(C)C [docetaxel]
Mean inhibition rate (tumor volume) [3]: 53%

CO[C@H]1C[C@@H]2CC[C@@H](C)[C@@](O)(O2)C(=O)C(=O)N2CCCC[C@H]2C(=O)O[C@H]([C@H](C)C[C@@H]2CC[C@@H](OCCO)[C@H](OC)C2)CC(=O)[C@H](C)/C=C(\C)[C@@H](O)[C@@H](OC)C(=O)[C@H](C)C[C@H](C)/C=C/C=C/C=C/1C [everolimus]
bioavailability [4]: ~20%
